From patent US10168342B2, “Lipid probes and uses thereof” (THE SCRIPPS RESEARCH INSTITUTE, priority 2015, dated 2019) come the findings set out here.

Read-outs that look alike come from different tables or passages of the source.

The target of assay [1] is AEA-DA lipid probe targets in Neuro2a cells (Mus musculus, UniProt Q60864).
The target of assay [2] is T1, AEA-DA lipid probe targets in Neuro2a cells (Mus musculus, UniProt Q80WJ7).
T1 sequence (Q80WJ7 1-579): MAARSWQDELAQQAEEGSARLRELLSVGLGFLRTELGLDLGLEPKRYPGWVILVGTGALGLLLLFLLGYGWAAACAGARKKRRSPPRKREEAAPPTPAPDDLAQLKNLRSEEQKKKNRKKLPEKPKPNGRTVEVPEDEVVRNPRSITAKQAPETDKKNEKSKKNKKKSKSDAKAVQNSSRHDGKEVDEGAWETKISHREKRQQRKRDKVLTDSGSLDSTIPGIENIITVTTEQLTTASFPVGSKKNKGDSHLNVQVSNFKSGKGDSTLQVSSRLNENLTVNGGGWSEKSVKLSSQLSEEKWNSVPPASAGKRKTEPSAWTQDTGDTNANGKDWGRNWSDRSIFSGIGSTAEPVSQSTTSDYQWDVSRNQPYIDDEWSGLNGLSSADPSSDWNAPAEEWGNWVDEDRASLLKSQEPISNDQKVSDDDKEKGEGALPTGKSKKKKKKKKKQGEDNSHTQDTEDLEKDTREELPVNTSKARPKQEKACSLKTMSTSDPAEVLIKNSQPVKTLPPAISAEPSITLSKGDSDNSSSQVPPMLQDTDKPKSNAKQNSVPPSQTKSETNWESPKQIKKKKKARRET

The target of assay [3] is T2, AEA-DA lipid probe targets in Neuro2a cells (Mus musculus, UniProt Q8C7K6).
T2 sequence (Q8C7K6 23-495): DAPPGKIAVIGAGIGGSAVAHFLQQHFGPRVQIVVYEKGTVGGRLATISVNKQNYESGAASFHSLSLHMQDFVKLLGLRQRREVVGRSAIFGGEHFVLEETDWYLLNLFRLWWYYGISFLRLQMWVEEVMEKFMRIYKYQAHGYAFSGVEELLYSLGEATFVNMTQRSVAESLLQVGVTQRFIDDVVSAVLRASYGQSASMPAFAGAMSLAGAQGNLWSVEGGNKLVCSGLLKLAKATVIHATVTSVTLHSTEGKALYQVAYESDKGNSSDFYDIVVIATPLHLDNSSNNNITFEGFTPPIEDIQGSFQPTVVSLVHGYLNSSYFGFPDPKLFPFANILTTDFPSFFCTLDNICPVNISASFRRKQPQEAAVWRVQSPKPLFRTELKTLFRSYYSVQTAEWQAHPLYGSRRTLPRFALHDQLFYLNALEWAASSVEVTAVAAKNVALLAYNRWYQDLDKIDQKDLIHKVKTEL

In assay [4] the target is AEA-DA lipid probe targets in Neuro2a cells (Mus musculus, UniProt Q8VDL4).
AEA-DA lipid probe targets in Neuro2a cells (Mus musculus, UniProt Q8VDL4), sequence (Q8VDL4 23-496): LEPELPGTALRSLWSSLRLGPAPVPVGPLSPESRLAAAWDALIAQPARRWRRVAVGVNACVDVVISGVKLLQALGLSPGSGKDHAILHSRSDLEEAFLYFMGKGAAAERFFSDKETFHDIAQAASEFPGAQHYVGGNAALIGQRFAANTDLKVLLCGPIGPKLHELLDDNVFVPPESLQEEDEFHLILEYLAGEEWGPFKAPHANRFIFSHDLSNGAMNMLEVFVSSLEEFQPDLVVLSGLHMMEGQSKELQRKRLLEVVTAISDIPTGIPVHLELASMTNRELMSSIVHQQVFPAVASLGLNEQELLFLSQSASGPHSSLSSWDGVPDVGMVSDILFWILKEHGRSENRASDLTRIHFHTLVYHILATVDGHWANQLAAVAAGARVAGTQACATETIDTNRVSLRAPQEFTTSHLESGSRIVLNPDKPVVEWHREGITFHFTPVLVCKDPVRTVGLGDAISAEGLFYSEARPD
Assay [5] concerns the target AEA-DA lipid probe targets in Neuro2a cells (Mus musculus, UniProt Q8VDQ1).
In assay [6] the target is T3, AEA-DA lipid probe targets in Neuro2a cells (Mus musculus, UniProt Q8VI75).
T3 sequence (Q8VI75 1-1082): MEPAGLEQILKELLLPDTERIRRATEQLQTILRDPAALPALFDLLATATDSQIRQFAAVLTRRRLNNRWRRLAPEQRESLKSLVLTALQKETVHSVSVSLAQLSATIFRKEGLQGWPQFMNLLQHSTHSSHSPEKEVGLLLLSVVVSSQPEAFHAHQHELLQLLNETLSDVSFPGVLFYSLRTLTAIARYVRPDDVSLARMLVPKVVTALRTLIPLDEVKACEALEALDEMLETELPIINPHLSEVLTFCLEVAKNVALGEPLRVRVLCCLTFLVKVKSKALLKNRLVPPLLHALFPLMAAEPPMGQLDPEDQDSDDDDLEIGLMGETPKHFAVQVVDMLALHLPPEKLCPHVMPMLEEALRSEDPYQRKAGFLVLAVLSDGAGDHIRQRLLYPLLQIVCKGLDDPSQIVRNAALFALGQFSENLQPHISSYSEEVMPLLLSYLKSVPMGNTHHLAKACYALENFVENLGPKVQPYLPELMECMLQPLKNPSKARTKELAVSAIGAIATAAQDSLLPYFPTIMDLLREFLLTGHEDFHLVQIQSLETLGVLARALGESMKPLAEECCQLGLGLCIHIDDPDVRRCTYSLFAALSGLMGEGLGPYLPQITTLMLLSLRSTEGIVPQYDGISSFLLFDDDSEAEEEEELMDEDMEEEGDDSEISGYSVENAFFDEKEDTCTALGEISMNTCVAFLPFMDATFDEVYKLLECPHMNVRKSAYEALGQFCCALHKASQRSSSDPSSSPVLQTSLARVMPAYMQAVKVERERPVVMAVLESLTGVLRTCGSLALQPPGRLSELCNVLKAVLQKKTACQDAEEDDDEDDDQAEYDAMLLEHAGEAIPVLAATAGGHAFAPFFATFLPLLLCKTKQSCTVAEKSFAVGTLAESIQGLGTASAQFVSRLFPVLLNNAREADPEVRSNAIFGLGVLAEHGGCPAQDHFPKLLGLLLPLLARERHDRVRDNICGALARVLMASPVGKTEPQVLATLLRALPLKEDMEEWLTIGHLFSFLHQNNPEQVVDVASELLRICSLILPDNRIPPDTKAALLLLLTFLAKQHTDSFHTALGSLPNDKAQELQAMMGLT

The target of assay [7] is AEA-DA lipid probe targets in Neuro2a cells (Mus musculus, UniProt Q9D880).
AEA-DA lipid probe targets in Neuro2a cells (Mus musculus, UniProt Q9D880), sequence (Q9D880 22-353): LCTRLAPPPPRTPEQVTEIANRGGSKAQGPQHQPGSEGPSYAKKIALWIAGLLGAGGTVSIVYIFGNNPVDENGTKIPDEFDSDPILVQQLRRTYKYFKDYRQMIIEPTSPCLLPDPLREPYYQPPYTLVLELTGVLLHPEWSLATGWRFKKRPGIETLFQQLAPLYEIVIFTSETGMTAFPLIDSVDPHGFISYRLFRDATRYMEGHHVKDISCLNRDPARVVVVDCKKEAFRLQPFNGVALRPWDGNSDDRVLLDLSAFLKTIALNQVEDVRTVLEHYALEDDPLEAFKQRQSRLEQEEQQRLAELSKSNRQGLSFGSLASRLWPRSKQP
Assay [8] addresses T4, AEA-DA lipid probe targets in Neuro2a cells (Mus musculus, UniProt Q9JMF7).
T4 sequence (Q9JMF7 1-238): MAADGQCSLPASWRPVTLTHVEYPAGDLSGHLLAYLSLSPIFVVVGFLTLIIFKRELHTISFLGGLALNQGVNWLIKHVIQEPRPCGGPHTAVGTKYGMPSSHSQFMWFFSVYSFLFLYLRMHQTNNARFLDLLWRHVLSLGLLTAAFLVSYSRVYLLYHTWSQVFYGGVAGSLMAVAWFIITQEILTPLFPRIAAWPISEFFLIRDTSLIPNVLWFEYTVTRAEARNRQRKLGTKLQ

For assay [9], the target named is AEA-DA lipid probe targets in Neuro2a cells (Mus musculus, UniProt Q9Z2G6).
AEA-DA lipid probe targets in Neuro2a cells (Mus musculus, UniProt Q9Z2G6), sequence (Q9Z2G6 22-790): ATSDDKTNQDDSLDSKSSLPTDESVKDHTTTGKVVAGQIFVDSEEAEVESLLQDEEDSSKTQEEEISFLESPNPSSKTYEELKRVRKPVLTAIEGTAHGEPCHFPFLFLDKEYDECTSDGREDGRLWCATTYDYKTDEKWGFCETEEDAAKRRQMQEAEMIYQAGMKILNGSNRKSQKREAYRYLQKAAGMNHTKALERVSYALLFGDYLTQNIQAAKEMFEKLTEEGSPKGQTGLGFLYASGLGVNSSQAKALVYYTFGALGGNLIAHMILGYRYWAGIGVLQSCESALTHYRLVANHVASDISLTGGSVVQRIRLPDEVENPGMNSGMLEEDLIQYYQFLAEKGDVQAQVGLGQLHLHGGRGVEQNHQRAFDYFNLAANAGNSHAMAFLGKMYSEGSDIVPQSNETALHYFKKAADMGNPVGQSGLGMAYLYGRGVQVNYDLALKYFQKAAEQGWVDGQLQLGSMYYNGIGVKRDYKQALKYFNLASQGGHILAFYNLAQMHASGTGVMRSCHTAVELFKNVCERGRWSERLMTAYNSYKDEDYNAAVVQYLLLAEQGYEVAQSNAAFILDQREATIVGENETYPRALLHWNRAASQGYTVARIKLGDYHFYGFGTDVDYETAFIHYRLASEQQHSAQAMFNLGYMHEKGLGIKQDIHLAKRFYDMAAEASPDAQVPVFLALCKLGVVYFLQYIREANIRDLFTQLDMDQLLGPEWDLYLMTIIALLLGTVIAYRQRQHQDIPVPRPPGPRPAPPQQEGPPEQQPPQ

AEA-DA lipid probe targets in Neuro2a cells (Mus musculus, UniProt Q8VDQ1), sequence (Q8VDQ1 whole entry): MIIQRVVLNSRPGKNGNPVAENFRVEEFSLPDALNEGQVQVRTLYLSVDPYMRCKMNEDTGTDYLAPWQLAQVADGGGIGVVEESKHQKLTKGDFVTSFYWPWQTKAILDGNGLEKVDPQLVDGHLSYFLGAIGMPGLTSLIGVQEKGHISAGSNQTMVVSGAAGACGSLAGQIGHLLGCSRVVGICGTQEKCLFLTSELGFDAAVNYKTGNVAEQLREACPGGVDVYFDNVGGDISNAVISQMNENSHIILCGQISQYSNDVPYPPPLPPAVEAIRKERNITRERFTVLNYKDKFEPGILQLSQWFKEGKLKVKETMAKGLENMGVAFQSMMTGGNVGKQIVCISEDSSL

For the compound `CCCCC/C=C\C/C=C\C/C=C\C/C=C\CCCC(=O)NCCO` [AEA, anandamide, reference compound], the “SILAC ratio Stip1” value in assay [1] (competitor 200 μM) was 1.3. In addition, the “SILAC ratio Mtdh” value in assay [2] (competitor 200 μM) is listed as 1.7. Moreover, the “SILAC ratio Pcyox11” value in assay [3] (competitor 200 μM) was 1.5. Further, the “SILAC ratio, Adpgk” value in assay [4] (competitor 200 μM) came to 1.8. In addition, in assay [5] (competitor 200 μM), the “SILAC ratio, Ptgr2” value is recorded as 8.7. Also, in assay [6] (competitor 200 μM), the “SILAC ratio Ipo4” value was found to be 1.5. Also, the “SILAC ratio Timm50” value in assay [7] (competitor 200 μM) turned out to be 1.2. The “SILAC ratio, Dolpp1” value in [8] (competitor 200 μM) is given as 2.2. In addition, the “SILAC ratio, Sel1l” value in assay [9] (competitor 200 μM) is recorded as 1.6.
On to `C=CCN(C)CCCCCCOc1ccc(C(=O)c2ccc(Br)cc2)c(F)c1` [Ro 48-8071, reference compound], for which the “SILAC ratio Stip1” value in [1] (competitor 25 μM) stood at 1.0. The “SILAC ratio Mtdh” value in assay [2] (competitor 25 μM) was found to be 1.2. In addition, in assay [3] (competitor 25 μM), the “SILAC ratio Pcyox11” value amounted to 1.0. Also, the “SILAC ratio, Adpgk” value in [4] (competitor 25 μM) was found to be 1.2. Besides, the “SILAC ratio, Ptgr2” value in assay [5] (competitor 25 μM) stood at 1.1. Also, in [6] (competitor 25 μM), the “SILAC ratio Ipo4” value is reported as 1.0. Moreover, in assay [7] (competitor 25 μM), the “SILAC ratio Timm50” value was found to be 0.9. The “SILAC ratio, Dolpp1” value in [8] (competitor 25 μM) was 1.3. In assay [9] (competitor 25 μM), the “SILAC ratio, Sel1l” value was found to be 1.2.
On to `CN1CCN(C(=O)c2c(-c3ccccc3)c3cc([N+](=O)[O-])ccc3n2C)CC1` [KML110, (1-Methyl-5-nitro-3-phenyl-1H-indol-2-yl)(4-methylpiperazin-1-yl)methanone], for which the “SILAC ratio Stip1” value in [1] (competitor 25 μM) is 1.6. Moreover, the “SILAC ratio Mtdh” value in assay [2] (competitor 25 μM) is on record as 1.5. Moreover, the “SILAC ratio Pcyox11” value in assay [3] (competitor 25 μM) amounted to 2.0. For the same compound, the “SILAC ratio, Adpgk” value in [4] (competitor 25 μM) stood at 1.5. In addition, in assay [5] (competitor 25 μM), the “SILAC ratio, Ptgr2” value is on record as 1.5. The “SILAC ratio Ipo4” value in assay [6] (competitor 25 μM) came out at 1.4. Further, the “SILAC ratio Timm50” value in [7] (competitor 25 μM) was 1.1. In [8] (competitor 25 μM), the “SILAC ratio, Dolpp1” value was 1.6. Besides, in assay [9] (competitor 25 μM), the “SILAC ratio, Sel1l” value is 1.5.
`O=C(/C=C/c1cccnc1)NCCCCC1CCN(C(=O)c2ccccc2)CC1` [FK-866, reference compound]: the “SILAC ratio Stip1” value in assay [1] (competitor 25 μM) was 1.3. Besides, the “SILAC ratio Mtdh” value in [2] (competitor 25 μM) was 1.2. Moreover, the “SILAC ratio Pcyox11” value in assay [3] (competitor 25 μM) is listed as 1.3. For the same compound, in assay [4] (competitor 25 μM), the “SILAC ratio, Adpgk” value is 1.2. The “SILAC ratio, Ptgr2” value in [5] (competitor 25 μM) was 5.2. Moreover, the “SILAC ratio Ipo4” value in [6] (competitor 25 μM) turned out to be 1.3. Further, the “SILAC ratio Timm50” value in assay [7] (competitor 25 μM) was 1.1. Also, the “SILAC ratio, Dolpp1” value in assay [8] (competitor 25 μM) was found to be 1.2. The “SILAC ratio, Sel1l” value in [9] (competitor 25 μM) turned out to be 1.4.
As for `CN1CCN(C(=O)c2[nH]c3ccc([N+](=O)[O-])cc3c2-c2ccccc2)CC1` [MJN228, (4-Methylpiperazin-1-yl)(5-nitro-3-phenyl-1H-indol-2-yl)methanone], the “SILAC ratio Stip1” value in [1] (competitor 10 μM) came out at 1.2; in assay [1] (competitor 25 μM), 1.3; in [1] (competitor 50 μM), 1.2; in assay [1] (competitor 100 μM) it was 1.9. In addition, the “SILAC ratio Mtdh” value in [2] (competitor 10 μM) turned out to be 1.3; in [2] (competitor 25 μM), 1.5; in assay [2] (competitor 50 μM), 1.6; in assay [2] (competitor 100 μM), 1.9. Also, the “SILAC ratio Pcyox11” value stood at 1.2 in assay [3] (competitor 10 μM), 1.8 in [3] (competitor 25 μM), 1.7 in [3] (competitor 50 μM) and 2.5 in assay [3] (competitor 100 μM). Besides, the “SILAC ratio, Adpgk” value in [4] (competitor 10 μM) was 1.4; in assay [4] (competitor 25 μM) it was 1.7; in assay [4] (competitor 50 μM), 1.5; in [4] (competitor 100 μM) it was 2.0. In addition, the “SILAC ratio, Ptgr2” value was determined as 1.2 in assay [5] (competitor 10 μM), 1.2 in assay [5] (competitor 25 μM), 1.0 in [5] (competitor 50 μM) and 1.5 in [5] (competitor 100 μM). The “SILAC ratio Ipo4” value in assay [6] (competitor 10 μM) was 1.0; in assay [6] (competitor 25 μM), 1.3; in [6] (competitor 50 μM) it was 1.0; in [6] (competitor 100 μM) it was 1.6. Further, the “SILAC ratio Timm50” value in assay [7] (competitor 10 μM) came out at 1.2; in assay [7] (competitor 25 μM), 1.3; in [7] (competitor 50 μM), 1.1; in assay [7] (competitor 100 μM), 1.2. Besides, the “SILAC ratio, Dolpp1” value is listed as 1.2 in assay [8] (competitor 10 μM), 1.6 in assay [8] (competitor 25 μM), 1.9 in assay [8] (competitor 50 μM) and 3.3 in assay [8] (competitor 100 μM). The “SILAC ratio, Sel1l” value in assay [9] (competitor 10 μM) was 1.2; in assay [9] (competitor 25 μM), 1.5; in assay [9] (competitor 50 μM) it was 1.5; in assay [9] (competitor 100 μM), 1.9.
